The structures appear in SMILES notation. pIC50: −log10 of the molar value.

As usually defined, the pIC50 is −log10 of the IC50, conventionally taken in molar units. By melting point is commonly meant the temperature of the solid-liquid transition.

Data set [1] has as its target T1, MET (Homo sapiens, UniProt P08581). Put plainly: Test B: inhibition of the autophosphorylation of MET, ELISA technique (pppY1230,1234,1235) in MKN45 cells. Format: cell-based. The arrangement: endogenous in cells; host or cells: MKN45 cells. The settings on record: 1 h treatment, phosphoMET ELISA. As to the method:
B) Test B: Inhibition of the autophosphorylation of MET; ELISA technique (pppY1230,1234,1235) a) Cell lysates: MKN45 cells are seeded into 96-well plates (cell coat BD polylysine) at 20 000 cells/well in 200 μl in RPMI medium+10% FCS+1% L-glutamine. They are left to adhere for 24 hours in an incubator.
The cells are treated the day after seeding with the products at 6 concentrations, in duplicate, for 1 h. At least 3 control wells are treated with the same final amount of DMSO.
Product dilution: Stock at 10 mM in pure DMSO—range from 10 mM to 30 μM with an increment of 3 in pure DMSO—intermediate dilutions to 1/50 in culture medium and then removal of 10 μl added directly to the cells (200 μl): final range of 10 000 to 30 nM.
At the end of the incubation, the supernatant is carefully removed and rinsing is performed with 200 μl of PBS. Next, 100 μl of lysis buffer are placed directly in the wells on ice and incubated at 4° C. for 30 minutes. Lysis buffer: 10 mM Tris HCl, pH 7.4, 100 mM NaCl, 1 mM EDTA, 1 mM EGTA, 1% Triton X-100, 10% glycerol, 0.1% SDS, 0.5% deoxycholate, 20 mM NaF, 2 mM Na3VO4, 1 mM PMSF and cocktail of antiproteases.
The 100 μl of lysates are transferred into a V-bottomed polypropylene plate and the ELISA is performed immediately, or the plate is frozen at −80° C.
70 μl of kit dilution buffer+30 μL of cell lysate, or 30 μl of lysis buffer for the blanks, are added to each well of the kit plate. Incubation is carried out for 2 h with gentle agitation at ambient temperature.
The wells are rinsed 4 times with 400 μl of kit washing buffer. Incubation is carried out with 100 μl of anti-phospho MET antibody for 1 hour at ambient temperature.
The wells are rinsed 4 times with 400 μl of kit washing buffer. Incubation is carried out with 100 μl of anti-rabbit HRP antibody for 30 minutes at ambient temperature (except for the wells of chromogen alone).
The wells are rinsed 4 times with 400 μl of kit washing buffer. 100 μL of chromogen are introduced and incubation is carried out for 30 minutes in the dark at ambient temperature.
The reaction is stopped with 100 μl of stop solution. The plate is read without delay at […], 0.1 second on a Wallac Victor plate reader.
Target sequence in this assay (P08581 25-1390): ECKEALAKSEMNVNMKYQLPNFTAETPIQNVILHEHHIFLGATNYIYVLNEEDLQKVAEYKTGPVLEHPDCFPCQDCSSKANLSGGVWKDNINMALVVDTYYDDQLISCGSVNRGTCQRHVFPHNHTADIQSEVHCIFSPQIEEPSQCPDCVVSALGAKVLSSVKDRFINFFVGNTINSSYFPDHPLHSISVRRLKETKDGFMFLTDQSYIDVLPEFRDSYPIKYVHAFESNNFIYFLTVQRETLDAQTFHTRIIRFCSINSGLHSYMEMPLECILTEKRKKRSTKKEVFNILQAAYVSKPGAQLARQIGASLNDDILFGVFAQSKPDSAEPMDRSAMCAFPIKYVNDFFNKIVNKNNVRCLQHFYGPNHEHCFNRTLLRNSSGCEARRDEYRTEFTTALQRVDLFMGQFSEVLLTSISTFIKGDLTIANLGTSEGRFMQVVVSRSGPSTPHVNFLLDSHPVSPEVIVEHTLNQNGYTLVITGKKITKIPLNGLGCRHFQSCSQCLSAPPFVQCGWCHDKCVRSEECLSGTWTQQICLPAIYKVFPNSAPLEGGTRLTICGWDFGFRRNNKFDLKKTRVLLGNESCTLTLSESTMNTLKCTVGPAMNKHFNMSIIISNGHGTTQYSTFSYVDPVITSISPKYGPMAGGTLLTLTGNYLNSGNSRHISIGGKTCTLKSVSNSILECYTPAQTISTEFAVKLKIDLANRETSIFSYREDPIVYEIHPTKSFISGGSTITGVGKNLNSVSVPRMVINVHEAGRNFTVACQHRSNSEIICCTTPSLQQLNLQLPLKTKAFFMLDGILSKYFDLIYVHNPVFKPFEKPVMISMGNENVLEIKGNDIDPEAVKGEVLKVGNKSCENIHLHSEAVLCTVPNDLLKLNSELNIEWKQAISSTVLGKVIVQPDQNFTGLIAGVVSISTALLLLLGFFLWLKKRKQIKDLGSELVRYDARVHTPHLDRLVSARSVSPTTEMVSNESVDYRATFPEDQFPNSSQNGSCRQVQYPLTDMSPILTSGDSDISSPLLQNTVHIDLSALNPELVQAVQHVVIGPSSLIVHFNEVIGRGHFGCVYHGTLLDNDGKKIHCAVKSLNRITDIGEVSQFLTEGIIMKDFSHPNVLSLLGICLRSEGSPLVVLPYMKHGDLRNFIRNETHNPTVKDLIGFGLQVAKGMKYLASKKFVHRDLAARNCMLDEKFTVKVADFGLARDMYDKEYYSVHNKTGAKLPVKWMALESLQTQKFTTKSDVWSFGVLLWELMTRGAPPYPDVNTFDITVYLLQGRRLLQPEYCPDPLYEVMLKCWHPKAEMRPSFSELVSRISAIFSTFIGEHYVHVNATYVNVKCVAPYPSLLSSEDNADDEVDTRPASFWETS

Data set [2] has as its target T1, MET. Put plainly: Test A: HTRF MET assay in 96-well format. Type of data set: biochemical. The arrangement: The His-Tev-MET (956-1390) recombinant DNA in pFastBac (Invitrogen) is transfected into insect cells; His-Tev (histidine tag with TEV cleavage site) (N, cleaved yes); made in house; host or cells: SF21 insect cells (baculovirus, pFastBac). The settings on record: MET 5 nM, 10 μM ATP, poly-(GAT). As to the method:
The His-Tev-MET (956-1390) recombinant DNA in pFastBac (Invitrogen) is transfected into insect cells and, after several viral amplification steps, the final baculovirus stock is tested for the expression of the protein of interest.
After infection for 72 h at 27° C. with the recombinant virus, SF21 cell cultures are harvested by centrifugation and the cell pellets are stored at −80° C.
The cell pellets are resuspended in the lysis buffer (buffer A [50 mM HEPES, pH 7.5, 250 mM NaCl, 10% glycerol, 1 mM TECP]; +cocktail of protease inhibitors, Roche Diagnostics, without EDTA, ref 1873580), stirred at 4° C. until the mixture is homogeneous, and then lysed mechanically using a “Dounce” type apparatus.
After centrifugation, the lysis supernatant is incubated for 2 h at 4° C. with nickel chelate resin (His-Trap 6 Fast Flow™, GE HealthCare). After washing with 20 volumes of buffer A, the suspension is packed into a column, and the proteins are eluted with a gradient of buffer B (buffer A+290 mM imidazole).
The fractions containing the protein of interest, for the purpose of electrophoretic analysis (SDS PAGE), are combined, concentrated by ultrafiltration (10 kDa cut-off) and injected onto an exclusion chromatography column (Superdex™ 200, GE HealthCare) equilibrated in buffer A.
After enzymatic cleavage of the histidine tag, the protein is reinjected onto a new IMAC nickel chelate chromatography column (His-Trap 6 Fast Flow™, GE HealthCare) equilibrated in buffer A. The fractions eluted with a gradient of buffer B and containing the protein of interest after electrophoresis (SDS PAGE) are finally combined and stored at −80° C.
For the production of autophosphorylated protein, the previous fractions are incubated for 1 h at ambient temperature after the addition of 2 mM ATP, 2 mM MgCl2 and 4 mM Na3VO4. After the reaction has been stopped with 5 mM of EDTA, the reaction mixture is injected onto a HiPrep desalifying column (GE HealthCare) pre-equilibrated in buffer A+4 mM Na3VO4, and the fractions containing the protein of interest (SDS PAGE analysis) are combined and stored at −80° C. The degree of phosphorylation is verified by mass spectrometry (LC-MS) and by peptide mapping.
MET at a final concentration of 5 nM is incubated in a final volume of 50 μl of enzymatic reaction in the presence of the test molecule (for a final concentration range of from 0.17 nM to 10 μM, 3% DMSO final concentration) in 10 mM MOPS buffer, pH 7.4, 1 mM DTT, 0.01% Tween 20. The reaction is initiated with the substrate solution to obtain final concentrations of 1 μg/ml poly-(GAT), 10 μM ATP and 5 mM MgCl2. After incubation for 10 min at ambient temperature, the reaction is stopped with a 30 μl mix so as to obtain a final solution of 50 mM Hepes, pH 7.5, 500 mM potassium fluoride, 0.1% BSA and 133 mM EDTA in the presence of 80 ng of streptavidin 61SAXLB Cis-Bio Int. and 18 ng of anti-phosphotyrosine Mab PT66-Europium Cryptate per well. After incubation for 2 hours at ambient temperature, the reading is taken at 2 wavelengths, 620 nm and 665 nm, on a reader for the TRACE/HTRF technique, and the % inhibition is calculated from the 665/620 ratios.
Target sequence in this assay (P08581 956-1390): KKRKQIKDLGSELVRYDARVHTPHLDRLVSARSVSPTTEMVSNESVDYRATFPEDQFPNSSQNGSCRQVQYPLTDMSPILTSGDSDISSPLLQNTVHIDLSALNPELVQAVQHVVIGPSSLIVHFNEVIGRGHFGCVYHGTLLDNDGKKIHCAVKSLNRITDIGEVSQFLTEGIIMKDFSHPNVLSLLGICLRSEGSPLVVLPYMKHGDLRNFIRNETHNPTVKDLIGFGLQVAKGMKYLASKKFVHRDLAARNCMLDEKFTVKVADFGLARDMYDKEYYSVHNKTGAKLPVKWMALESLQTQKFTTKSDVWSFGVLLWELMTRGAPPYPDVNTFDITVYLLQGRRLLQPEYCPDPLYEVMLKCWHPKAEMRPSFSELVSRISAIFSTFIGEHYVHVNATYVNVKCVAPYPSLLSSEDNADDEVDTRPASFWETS
On the technique in general: TR-FRET usually uses a lanthanide donor and a delayed reading to cut background.

Data set [3] relates to HCT116 cells and MKN45 cells. Put plainly: Test C: measurement of cell proliferation by 14C-thymidine pulse. The following applies: 14C-thymidine incorporation, 96 h of treatment; cell line not given. Type of data set: cell-based. As to the method: The cells are seeded into Cytostar 96-well plates in 180 μl for 4 hours at 37° C. and 5% CO2: HCT116 cells in a proportion of 2500 cells per well in DMEM medium+10% foetal calf serum+1% L-glutamine, and MKN45 cells in a proportion of 7500 cells per well in RPMI medium+10% foetal calf serum+1% L-glutamine. After these 4 hours of incubation, the products are added in 10 μl as a […] concentrated solution according to the dilution method mentioned for the ELISA. The products are tested at 10 concentrations in duplicate from 10 000 nM to 0.3 nM with an increment of 3.
After treatment for 72 h, 10 μl of ^14C-thymidine at 10 μCi/ml are added so as to obtain 0.1 μCi per well. The ^14C-thymidine incorporation is measured on a Micro-Beta machine (Perkin-Elmer) after 24 hours of pulse and 96 h of treatment.
All the steps of the assay are automated on BIOMEK 2000 or TECAN stations.
For orientation: Uptake of a labelled nucleoside into DNA is a usual measure of proliferation.

In the case of `COCCNC(=O)Nc1nc2ccc(Sc3nnc4ccccn34)cc2s1` [Example 5, 1-(2-methoxyethyl)-3-[6-([1,2,4]triazolo[4,3-a]pyridin-3-ylsulphanyl)-1,3-benzothiazol-2-yl]urea], the melting point fell in the range of 252 to 257 °C. The pIC50 on MET [1] was more than 7.00. Further, the pIC50 at MET [2] was more than 7.00. Besides, the pIC50 in data set [3] is more than 6.00.
`Nc1nc2ccc(Sc3nnc4ccc(-c5ccc(F)cc5)cn34)cc2s1` [Example 7, 6-{[6-(4-fluorophenyl)[1,2,4]triazolo[4,3-a]pyridin-3-yl]sulphanyl}-1,3-benzothiazol-2-amine] gave a melting point of more than 264 °C. The same compound gave a pIC50 against MET [1] of more than 7.00. Moreover, at MET [2], the pIC50 was more than 7.00. Also, the pIC50 in data set [3] was more than 6.00.
Consider `O=C(Nc1nc2ccc(Sc3nnc4ccc(-c5cn[nH]c5)cn34)cc2s1)C1CC1` [Example 11, N-(6-{[6-(1H-pyrazol-4-yl)[1,2,4]triazolo[4,3-a]pyridin-3-yl]-sulphanyl}-1,3-benzothiazol-2-yl)cyclopropanecarboxamide], for which the melting point was more than 260 °C. The compound further had a pIC50 on MET [1] of more than 7.00. In addition, the negative logarithm of the IC50 (pIC50) at MET [2] is more than 7.00. The pIC50 in data set [3] is more than 6.00.
Compound `Cc1ccc(-c2ccc3nnc(Sc4ccc5nc(NC(=O)C6CC6)sc5c4)n3c2)cc1F` [Example 12, N-(6-{[6-((3-fluoro-4-methyl)phenyl)[1,2,4]triazolo[4,3-a]pyridin-3-yl]sulphanyl}-1,3-benzothiazol-2-yl)cyclopropanecarboxamide] yielded a melting point of 191 °C. The pIC50 against MET [1] was more than 7.00. Besides, the pIC50 at MET [2] is more than 7.00. Further, in data set [3], the negative-log IC50 (pIC50) was more than 6.00.
On to `O=C(Nc1nc2ccc(Sc3nnc4ccc(-c5cccc(F)c5)cn34)cc2s1)C1CC1` [Example 13, N-(6-{[6-(3-fluorophenyl)[1,2,4]triazolo[4,3-a]pyridin-3-yl]sulphanyl}-1,3-benzothiazol-2-yl)cyclopropanecarboxamide], for which the melting point is more than 260 °C. For the same compound, the negative-log IC50 (pIC50) against MET [1] was more than 7.00. The negative logarithm of the IC50 (pIC50) on MET [2] is more than 7.00. In data set [3], the negative logarithm of the IC50 (pIC50) was more than 6.00.

The values are drawn from patent US20110263594A1, “NOVEL TRIAZOLO(4,3-A)PYRIDINE DERIVATIVES, PROCESS FOR THE PREPARATION THEREOF, USE THEREOF AS MEDICAMENTS, PHARMACEUTICAL COMPOSITIONS AND NOVEL USE, IN PARTICULAR AS MET INHIBITORS” (SANOFI-AVENTIS, priority 2008, published 2011).
